# Values quoted from earlier work as cited in patent US20090136550A1, “MODIFIED RELEASE FORMULATIONS OF DILTIAZEM” (Capricorn Pharma Inc., priority 2007, published 2009).
# Counter-ions that a name gives are not always drawn.
compound,measurement,value
COc1ccc([C@@H]2Sc3ccccc3N(CCN(C)C)C(=O)[C@@H]2OC(C)=O)cc1 [diltiazem hydrochloride],water solubility,highly water soluble
